Laboratory results from paper PMC8148049, “Fluorogenic Trp(redBODIPY) cyclopeptide targeting keratin 1 for imaging of aggressive carcinomas” (Chemical Science, 2019).
“And” between values parts separate entries of the source, which are not always exact repeats. Equal values may be shown once. *1 amine or outer side, *2 acyl side, *3 side chain or, on linkers, in order; H or OH if unused. Where a SMILES comes first, the peptide text is derived from it. [ ]: non-standard residue; d: D form. X1 = CC1=CC(C)=[N+]2C1=C(c1cccc(-c3[nH]c4ccccc4c3C[C@H](N[*:1])C(=O)[*:2])c1)c1ccc(-c3ccc(C)s3)n1[B-]2(F)F; Nle = CCCC[C@H](N)C(=O)O

What was measured:
[1] = system: Protease XIV (from Streptomyces Griseus); experiment: Protease stability assay (protease cocktail, HPLC-MS monitoring); type: in vitro ADME; conditions: Protease XIV 5 μg mL-1 in PBS-citrate buffer pH 7.1, 37 °C, peptide 500 µM (from 5 mM DMSO stock), HPLC-MS with detection at 280 nm
Method: Given that proteases are abundant enzymes at tumour sites, we also investigated the potential degradation of the cyclopeptides 2 (unlabelled) and 8 [Trp(redBODIPY)-labelled] when subjected to strong proteolytic environments. We incubated both peptides with a commercially available protease cocktail at 37 °C and recorded their chemical stability by HPLC-MS over time. […] We also observed that the incorporation of the amino acid Trp(redBODIPY) into the structure of the cyclopeptide 2 slightly augmented its resistance to proteases, likely due to the inherent properties of unnatural amino acids.
5. Experimental Protocols for Biological Assays […]
(§1) Protease stability assays
(§2) The chemical stability of the peptides was assessed in the presence of Protease XIV (from Streptomyces Griseus) in PBS-citrate buffer (pH 7.1) at 37 °C. First, a stock of 5 μg mL-1 of the protease cocktail in the buffer was prepared. Initially, a concentrated 1 mg mL−1 solution was obtained by weighing 1.1 mg of the protease and dissolving it in 1.1 mL of buffer, and afterwards diluting it down to the desired 5 μg mL-1 stock. Then, 5 µL of the peptides (5 mM in DMSO) were diluted with 45 µL of the protease cocktail to obtain a final peptide concentration of 500 µM. Peptides were vortexed, covered in aluminium foil and shaken at 37°C for 2 h or 24 h. Aliquots (25 µL) were taken, proteins were precipitated by microcentrifugation at 4°C, and supernatants were collected for HPLC-MS with detection at 280 nm. […]

HeLa cells = experiment: Cell viability assay (TACS MTT Cell Proliferation assay); type: cell-based; conditions: different concentrations of peptide, 2 h at 37 °C, vs untreated control, means ± s.d. (n = 4), p > 0.05
Method: 5. Experimental Protocols for Biological Assays
Spectroscopic characterisation
Spectral properties were measured in a BioTek Cytation 3 spectrophotometer. Absorbance and emission spectra were determined in the range of 400–700 nm (every 1 nm) at the indicated concentrations. Environmental sensitivity was measured by comparing the emission in PBS or in presence of phosphatidylcholine: cholesterol (7:1) liposomes (3.75 mg mL-1 PC).
Fluorescence emission was determined on a 384-well plate using a BioTek Cytation 3 spectrophotometer as indicated (excitation at 520 nm, 530-700 nm emission range, every 1 […]
as §1
as §2, with “h.” for “h. Aliquots (25 µL) were taken, proteins were precipitated by microcentrifugation at 4°C, and supernatants were collected for HPLC-MS with detection at 280 nm.”
Cell viability of HeLa cells was determined using the TACS® MTT Cell Proliferation assay (Trevigen). […]

SMILES	chemical stability 2 h [1]	chemical stability 24 h [1]	Viability of HeLa cells (HeLa cells)	fluorescence increase in hydrophobic medium (fluorogenic)
CCCC[C@@H]1NC(=O)[C@H](Cc2c[nH]c3ccccc23)NC(=O)[C@H](CC(C)C)NC(=O)[C@H](Cc2ccccc2)NC(=O)[C@@H](CCCCN)NC(=O)[C@H](CCC(N)=O)NC(=O)[C@H](Cc2ccc(O)cc2)NC(=O)[C@H](C)NC(=O)[C@H](C)NC(=O)[C@H](CCC(=O)O)NC1=O [compound 2, reference compound] (cyclo(AAYQ[dK]FLW[Nle]E))	65%	50%		
CCCC[C@@H]1NC(=O)[C@H](Cc2c(-c3cccc(C4=C5C(C)=CC(C)=[N+]5[B-](F)(F)n5c4ccc5-c4ccc(C)s4)c3)[nH]c3ccccc23)NC(=O)[C@H](CC(C)C)NC(=O)[C@H](Cc2ccccc2)NC(=O)[C@@H](CCCCN)NC(=O)[C@H](CCC(N)=O)NC(=O)[C@H](Cc2ccc(O)cc2)NC(=O)[C@H](C)NC(=O)[C@H](C)NC(=O)[C@H](CCC(=O)O)NC1=O [compound 8] (cyclo(AAYQ[dK]FL[X1][Nle]E))	> 95%	82%	Non-significant differences	< 70 fold and 70 fold
